# Assay results from patent US5624923A, “Tricyclic diazepine vasopressin antagonists and oxytocin antagonists” (priority 1995, dated 1997).
# pIC50: −log10 of the molar value. Several values for one entry are separate records, joined by “and”; a condition that tells them apart may be missing. Identical values can stand only once.
# What was measured:
# [1] = target: T1, Rat Hepatic V1 Receptors (Rattus norvegicus, UniProt P30560); assay: Binding Assay to Rat Hepatic V1 Receptors; settings: rat liver membranes; read-out: V1 IC50
# T1 construct: Rat liver plasma membranes expressing the vasopressin V1 receptor subtypes; from tissue; host or cells: rat liver plasma membranes
# T1 sequence (P30560 whole entry): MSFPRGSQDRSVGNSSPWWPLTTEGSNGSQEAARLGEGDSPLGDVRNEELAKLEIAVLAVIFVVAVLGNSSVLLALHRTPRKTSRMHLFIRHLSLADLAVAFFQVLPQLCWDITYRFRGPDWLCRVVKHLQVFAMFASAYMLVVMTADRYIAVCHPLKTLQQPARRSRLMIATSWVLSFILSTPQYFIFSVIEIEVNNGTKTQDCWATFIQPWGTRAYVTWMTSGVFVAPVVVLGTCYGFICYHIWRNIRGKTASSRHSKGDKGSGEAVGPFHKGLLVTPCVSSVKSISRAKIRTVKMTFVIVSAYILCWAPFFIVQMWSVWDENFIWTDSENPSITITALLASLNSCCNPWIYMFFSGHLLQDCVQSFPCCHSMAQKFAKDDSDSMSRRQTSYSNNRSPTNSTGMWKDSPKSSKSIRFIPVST
# [2] = tested on: Vasopressin V1; assay: Vasopressin V1 Antagonist Activity in Conscious Rats (vasopressin vasopressor response); type: in vivo, rat; set-up: Average Change: unit not given here; settings: for % Inhibition / Average Change: SHR
# Procedure, shortened: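 Conscious rats are restrained supine, and under local 2% procaine a PE 10/20 cannula is passed through the ventral caudal tail artery into the lower abdominal aorta. The caudal vein is cannulated for intravenous dosing. Blood pressure is recorded with a Statham P23Db transducer, and vasopressin injections are repeated after compound dosing. Percent antagonism is calculated against the pre-drug vasopressor response taken as 100%.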
# [3] = 3 mg/kg i.v., VAS 0.01 i.u./kg, 30 min
# [4] = 3 mg/kg i.v., VAS 0.01 i.u./kg, 60 min
# [5] = 3 mg/kg i.v., VAS 0.01 i.u./kg, 90 min
# [6] = 3 mg/kg i.v., VAS 0.01 i.u./kg, 120 min
# [7] = 3 mg/kg i.v., VAS 0.01 i.u./kg, 180 min
# [8] = 3 mg/kg i.v., VAS 0.01 i.u./kg, 240 min
# [9] = 3 mg/kg i.v., VAS 0.01 i.u./kg, 300 min
# [10] = 3 mg/kg i.v., VAS 0.02 i.u./kg, 30 min
# [11] = 3 mg/kg i.v., VAS 0.02 i.u./kg, 60 min
# [12] = 3 mg/kg i.v., VAS 0.02 i.u./kg, 90 min
# [13] = 3 mg/kg i.v., VAS 0.02 i.u./kg, 120 min
# [14] = 3 mg/kg i.v., VAS 0.02 i.u./kg, 300 min
# [15] = 10 mg/kg p.o., VAS 0.01 i.u./kg, 30 min
# [16] = 10 mg/kg p.o., VAS 0.01 i.u./kg, 60 min
# [17] = 10 mg/kg p.o., VAS 0.01 i.u./kg, 90 min
# [18] = 10 mg/kg p.o., VAS 0.01 i.u./kg, 120 min
# [19] = 10 mg/kg p.o., VAS 0.01 i.u./kg, 180 min
# [20] = 10 mg/kg p.o., VAS 0.01 i.u./kg, 240 min
# [21] = 10 mg/kg p.o., VAS 0.01 i.u./kg, 300 min
# [22] = 10 mg/kg p.o., VAS 0.02 i.u./kg, 30 min
# [23] = 10 mg/kg p.o., VAS 0.02 i.u./kg, 60 min
# [24] = 10 mg/kg p.o., VAS 0.02 i.u./kg, 300 min
# [25] = 30 mg/kg p.o., VAS 0.01 i.u./kg, 30 min
# [26] = 30 mg/kg p.o., VAS 0.01 i.u./kg, 60 min
# [27] = 30 mg/kg p.o., VAS 0.01 i.u./kg, 90 min
# [28] = 30 mg/kg p.o., VAS 0.01 i.u./kg, 120 min
# [29] = 30 mg/kg p.o., VAS 0.01 i.u./kg, 180 min
# [30] = 30 mg/kg p.o., VAS 0.01 i.u./kg, 240 min
# [31] = 30 mg/kg p.o., VAS 0.02 i.u./kg, 30 min
# [32] = 30 mg/kg p.o., VAS 0.02 i.u./kg, 60 min
# [33] = 30 mg/kg p.o., VAS 0.02 i.u./kg, 90 min
# [34] = 30 mg/kg p.o., VAS 0.02 i.u./kg, 120 min
# [35] = 30 mg/kg p.o., VAS 0.02 i.u./kg, 180 min
# [36] = 30 mg/kg p.o., VAS 0.02 i.u./kg, 240 min
# [37] = 10 mg/kg p.o., VAS 0.02 i.u./kg, 90 min
# [38] = 10 mg/kg p.o., VAS 0.02 i.u./kg, 120 min
# [39] = 10 mg/kg p.o., VAS 0.02 i.u./kg, 180 min
# [40] = 10 mg/kg p.o., VAS 0.02 i.u./kg, 240 min
smiles,measurement,setting,value
"O=C(Nc1ccc(C(=O)N2Cc3cccn3Cc3ccccc32)cc1)C(O)c1ccccc1 (racemic) [Example 588, (±) α-Hydroxy-N-[4-(5H-pyrrolo[2,1c][1,4]benzodiazepin-10(11H)-ylcarbonyl)phenyl]benzeneacetamide]",pIC50,[1],7.40
same,Max. % Inhibition,[2]; 10 mg/kg i.v.,65%
same,Time (of max. % inhibition),[2]; 10 mg/kg i.v.,90 min
same,Max. % Inhibition,[2]; 30 mg/kg p.o.,80%
same,Time (of max. % inhibition),[2]; 30 mg/kg p.o.,120 min
"Cc1ccccc1C(=O)Nc1ccc(C(=O)N2Cc3cccn3Cc3ccccc32)cc1 [Example 3, 2-Methyl-N-[4-(5H-pyrrolo[2,1-c][1,4]-benzodiazepin-10(11H)-ylcarbonyl)phenyl]benzamide]",pIC50,[1],7.42
same,% Inhibition,[2]; [3],70% and 69%
same,Average Change,[2]; [3],15
same,% Inhibition,[2]; [4],75% and 57%
same,Average Change,[2]; [4],12.5 and 21
same,% Inhibition,[2]; [5],65% and 76%
same,Average Change,[2]; [5],17.5 and 12
same,% Inhibition,[2]; [6],60% and 58%
same,Average Change,[2]; [6],20 and 20.5
same,% Inhibition,[2]; [7],40% and 57%
same,Average Change,[2]; [7],30 and 21
same,% Inhibition,[2]; [8],20% and 35%
same,Average Change,[2]; [8],40 and 32
same,% Inhibition,[2]; [9],61%
same,Average Change,[2]; [9],19
same,% Inhibition,[2]; [10],57%
same,Average Change,[2]; [10],23.5 and 22
same,% Inhibition,[2]; [11],68% and 44%
same,Average Change,[2]; [11],17.5 and 29
same,% Inhibition,[2]; [12],73% and 46%
same,Average Change,[2]; [12],15 and 28
same,% Inhibition,[2]; [13],41% and 64%
same,Average Change,[2]; [13],32.5 and 18.5
same,Average Change,"[2]; 3 mg/kg i.v., VAS 0.02 i.u./kg, 180 min",55 and 28.5
same,Average Change,"[2]; 3 mg/kg i.v., VAS 0.02 i.u./kg, 240 min",52.5 and 27.5
same,% Inhibition,[2]; [14],41%
same,Average Change,[2]; [14],30.5
same,% Inhibition,[2]; [15],78% and 71% and 73%
same,Average Change,[2]; [15],12.5 and 10 and 11
same,% Inhibition,[2]; [16],70% and 71%
same,Average Change,[2]; [16],17.5 and 10.5 and 11.5
same,% Inhibition,[2]; [17],81% and 70%
same,% Inhibition,[2]; [18],74% and 59% and 69%
same,Average Change,[2]; [18],15 and 14.5 and 12.5
same,% Inhibition,[2]; [19],65% and 77% and 61%
same,% Inhibition,[2]; [20],61% and 76% and 51%
same,% Inhibition,[2]; [21],59%
same,Average Change,[2]; [21],16.5
same,% Inhibition,[2]; [22],65% and 66% and 70%
same,Average Change,[2]; [22],17.5 and 18.5 and 16
same,% Inhibition,[2]; [23],55% and 66% and 58%
same,Average Change,[2]; [23],22.5 and 18.5
same,% Inhibition,[2]; [24],56%
same,Average Change,[2]; [24],24
same,% Inhibition,[2]; [25],72%
same,Average Change,[2]; [25],15
same,% Inhibition,[2]; [26],57%
same,Average Change,[2]; [26],22.5
same,% Inhibition,[2]; [27],81%
same,Average Change,[2]; [27],10
same,% Inhibition,[2]; [28],81%
same,Average Change,[2]; [28],10
same,% Inhibition,[2]; [29],81%
same,Average Change,[2]; [29],10
same,% Inhibition,[2]; [30],91%
same,Average Change,[2]; [30],5
same,% Inhibition,[2]; [31],62%
same,Average Change,[2]; [31],20
same,% Inhibition,[2]; [32],57%
same,Average Change,[2]; [32],22.5
same,% Inhibition,[2]; [33],62%
same,Average Change,[2]; [33],20
same,% Inhibition,[2]; [34],76%
same,Average Change,[2]; [34],12.5
same,% Inhibition,[2]; [35],67%
same,Average Change,[2]; [35],17.5
same,% Inhibition,[2]; [36],81%
same,Average Change,[2]; [36],10
"O=C(Nc1ccc(C(=O)N2Cc3cccn3Cc3ccccc32)cc1)c1cc(Cl)ccc1Cl [Example 4, N-[4-(5H-pyrrolo[2,1-c][1,4]benzodiazepin-10(11H)-ylcarbonyl)phenyl]-2,5-dichlorobenzamide]",pIC50,[1],6.92
same,% Inhibition,[2]; [15],6%
same,Average Change,[2]; [15],44.5
same,% Inhibition,[2]; [16],36%
same,Average Change,[2]; [16],30.5
same,% Inhibition,[2]; [17],19%
same,Average Change,[2]; [17],38.5
same,% Inhibition,[2]; [18],32%
same,Average Change,[2]; [18],32.5
same,% Inhibition,[2]; [19],25%
same,Average Change,[2]; [19],35.5
same,% Inhibition,[2]; [20],39%
same,Average Change,[2]; [20],29
same,% Inhibition,[2]; [22],27%
same,Average Change,[2]; [22],36
same,% Inhibition,[2]; [23],10%
same,Average Change,[2]; [23],44.5
same,% Inhibition,[2]; [37],-5%
same,Average Change,[2]; [37],52
same,% Inhibition,[2]; [38],-2%
same,Average Change,[2]; [38],50.5
same,% Inhibition,[2]; [39],11%
same,Average Change,[2]; [39],44
same,% Inhibition,[2]; [40],47%
same,Average Change,[2]; [40],26
